24 compounds from US9884832B2 (priority 2011, dated 2018) can be followed below.

Like-named read-outs stand apart in the source and are kept apart here.

The target in assay [1] is AM2 S31N (serine→asparagine mutation at residue 31 in the M2 protein) (Influenza A virus, UniProt P0DOF5, S31N). The class given is cell-based, influenza virus A/Udorn/72.
Assay [2] concerns the target AM2 V27A (valine→alanine mutation at residue 27 in the M2 protein) (Influenza A virus, UniProt P0DOF5, V27A). In kind it is cell-based, influenza virus A/Udorn/72.

As for `CC(NC12CC3CC(CC(C3)C1)C2)c1ccc(I)s1` (stereo not drawn) [Example 82a, N-(1-(5-iodothiophen-2-yl)ethyl)adamantan-1-amine], in assay [1], the “S31N OOcyte Inhibition at 100 uM (%)” value is given as “B (key: (A)=31-95%; (B)=0-30%)”. In addition, in assay [2], the “V27A OOcyte Inhibition at 100 uM (%)” value is listed as “A (key: (A)=31-95%; (B)=0-30%)”.

For the compound `Brc1nc(CNC23CC4CC(CC(C4)C2)C3)cs1` [Example 83a, N-((2-bromothiazol-4-yl)methyl)adamantan-1-amine], the “S31N OOcyte Inhibition at 100 uM (%)” value in assay [1] is on record as “A (key: (A)=31-95%; (B)=0-30%)”. Moreover, the “V27A OOcyte Inhibition at 100 uM (%)” value in assay [2] is “B (key: (A)=31-95%; (B)=0-30%)”.

As to `COc1cc(CNC23CC4CC(CC(C4)C2)C3)ccc1O` [Example 50, 4-(Adamantan-1-ylaminomethyl)-2-methoxy-phenol], in assay [1] (pH 5.5), the “S31N OOcyte Inhibition at 100 uM (%)” value is listed as “B (key: (A)=31-95%; (B)=0-30%)”. In addition, in assay [2] (pH 5.5), the “V27A OOcyte Inhibition at 100 uM (%)” value is given as “A (key: (A)=31-95%; (B)=0-30%)”.

Regarding `Cc1cc(CNC23CC4CC(CC(C4)C2)C3)ccc1O` [Example 51, 4-(Adamantan-1-ylaminomethyl)-2-methyl-phenol], the “S31N OOcyte Inhibition at 100 uM (%)” value in assay [1] (pH 5.5) is given as “B (key: (A)=31-95%; (B)=0-30%)”. Moreover, in assay [2] (pH 5.5), the “V27A OOcyte Inhibition at 100 uM (%)” value is “B (key: (A)=31-95%; (B)=0-30%)”.

For `Fc1ccc(CNC23CC4CC(CC(C4)C2)C3)cc1` [Example 27, Adamantan-1-yl-(4-fluoro-benzyl)-amine], the “S31N OOcyte Inhibition at 100 uM (%)” value in assay [1] (pH 5.5) is “B (key: (A)=31-95%; (B)=0-30%)”. Also, the “V27A OOcyte Inhibition at 100 uM (%)” value in assay [2] (pH 5.5) is given as “B (key: (A)=31-95%; (B)=0-30%)”.

Regarding `c1csc(-c2ccc(CNC34CC5CC(CC(C5)C3)C4)cc2)c1` [Example 44, N-(4-(Thiophen-2-yl)benzyl)adamantan-1-amine], the “S31N OOcyte Inhibition at 100 uM (%)” value in assay [1] (pH 5.5) is recorded as “A (key: (A)=31-95%; (B)=0-30%)”. Moreover, the “V27A OOcyte Inhibition at 100 uM (%)” value in assay [2] (pH 5.5) is “B (key: (A)=31-95%; (B)=0-30%)”.

Consider `Oc1ccccc1CNC12CC3CC(CC(C3)C1)C2` [Example 28, 2-(Adamantan-1-ylaminomethyl)-phenol], for which the “S31N OOcyte Inhibition at 100 uM (%)” value in assay [1] (pH 5.5) was “B (key: (A)=31-95%; (B)=0-30%)”. For the same compound, the “V27A OOcyte Inhibition at 100 uM (%)” value in assay [2] (pH 5.5) is listed as “B (key: (A)=31-95%; (B)=0-30%)”.

For `CC(NC12CC3CC(CC(C3)C1)C2)c1ccc(C#N)s1` (stereo not drawn) [Example 92a, 5-(1-(adamantan-1-ylamino)ethyl)thiophene-2-carbonitrile], the “S31N OOcyte Inhibition at 100 uM (%)” value in assay [1] is on record as “B (key: (A)=31-95%; (B)=0-30%)”. Also, in assay [2], the “V27A OOcyte Inhibition at 100 uM (%)” value is reported as “B (key: (A)=31-95%; (B)=0-30%)”.

With `CN(CCC#N)c1ccc(CNC23CC4CC(CC(C4)C2)C3)cc1` [Example 38, 3-((4-((Adamantan-1-ylamino)methyl)phenyl)(methyl)amino)propanenitrile], the “S31N OOcyte Inhibition at 100 uM (%)” value in assay [1] (pH 5.5) was “A (key: (A)=31-95%; (B)=0-30%)”. Further, the “V27A OOcyte Inhibition at 100 uM (%)” value in assay [2] (pH 5.5) is listed as “B (key: (A)=31-95%; (B)=0-30%)”.

On to `Cc1nn2cc(CNC3C4CC5CC(C4)CC3C5)nc2s1` (stereo not drawn) [Example 106, Adamantan-2-yl-(2-methyl-imidazo[2,1-b][1,3,4]thiadiazol-6-ylmethyl)-amine], for which, in assay [1] (pH 5.5), the “S31N OOcyte Inhibition at 100 uM (%)” value is recorded as “B (key: (A)=31-95%; (B)=0-30%)”. For the same compound, the “V27A OOcyte Inhibition at 100 uM (%)” value in assay [2] (pH 5.5) is “A (key: (A)=31-95%; (B)=0-30%)”.

`Clc1ccc(CNC23CC4CC(CC(C4)C2)C3)s1` [Example 79a, N-((5-chlorothiophen-2-yl)methyl)adamantan-1-amine]: the “S31N OOcyte Inhibition at 100 uM (%)” value in assay [1] is listed as “A (key: (A)=31-95%; (B)=0-30%)”. Moreover, the “V27A OOcyte Inhibition at 100 uM (%)” value in assay [2] was “B (key: (A)=31-95%; (B)=0-30%)”.

Turning to `O=[N+]([O-])c1ccccc1CNC12CC3CC(CC(C3)C1)C2` [Example 30, Adamantan-1-yl-(2-nitro-benzyl)-amine], the “S31N OOcyte Inhibition at 100 uM (%)” value in assay [1] (pH 5.5) is reported as “B (key: (A)=31-95%; (B)=0-30%)”. The “V27A OOcyte Inhibition at 100 uM (%)” value in assay [2] (pH 5.5) was “B (key: (A)=31-95%; (B)=0-30%)”.

Turning to `Brc1ccc(CNC23CC4CC(CC(C4)C2)C3)cc1` [Example 41, N-(4-Bromobenzyl)adamantan-1-amine], the “S31N OOcyte Inhibition at 100 uM (%)” value in assay [1] (pH 5.5) was “A (key: (A)=31-95%; (B)=0-30%)”. For the same compound, the “V27A OOcyte Inhibition at 100 uM (%)” value in assay [2] (pH 5.5) is listed as “B (key: (A)=31-95%; (B)=0-30%)”.

Consider `c1ccc2nc(CNC34CC5CC(CC(C5)C3)C4)ccc2c1` [Example 56a, Adamantan-1-yl-quinolin-2-ylmethyl-amine], for which the “S31N OOcyte Inhibition at 100 uM (%)” value in assay [1] is “A (key: (A)=31-95%; (B)=0-30%)”. Besides, in assay [2], the “V27A OOcyte Inhibition at 100 uM (%)” value is reported as “B (key: (A)=31-95%; (B)=0-30%)”.

Consider `OCc1ccc(CNC23CC4CC(CC(C4)C2)C3)o1` [Example 77, [5-(Adamantan-1-ylaminomethyl)-furan-2-yl]methanol], for which the “S31N OOcyte Inhibition at 100 uM (%)” value in assay [1] (pH 5.5) was “B (key: (A)=31-95%; (B)=0-30%)”. The “V27A OOcyte Inhibition at 100 uM (%)” value in assay [2] (pH 5.5) is listed as “B (key: (A)=31-95%; (B)=0-30%)”.

Consider `c1cc2[nH]c(CNC34CC5CC(CC(C5)C3)C4)cc2s1` [Example 80, Adamantan-1-yl-(4H-thieno[3,2-b]pyrrol-5-ylmethyl)-amine], for which, in assay [1] (pH 5.5), the “S31N OOcyte Inhibition at 100 uM (%)” value is reported as “A (key: (A)=31-95%; (B)=0-30%)”. Further, the “V27A OOcyte Inhibition at 100 uM (%)” value in assay [2] (pH 5.5) is “B (key: (A)=31-95%; (B)=0-30%)”.

Turning to `Oc1ccc(CNC23CC4CC(CC(C4)C2)C3)cc1Cl` [Example 47, 4-(Adamantan-1-ylaminomethyl)-2-chloro-phenol], in assay [1] (pH 5.5), the “S31N OOcyte Inhibition at 100 uM (%)” value is recorded as “B (key: (A)=31-95%; (B)=0-30%)”. For the same compound, the “V27A OOcyte Inhibition at 100 uM (%)” value in assay [2] (pH 5.5) is recorded as “A (key: (A)=31-95%; (B)=0-30%)”.

For `CC(C)(C)C1CCC(NCc2ccc(O)cc2O)CC1` (stereo not drawn) [Example 109, 4-[(4-tert-Butyl-cyclohexylamino)-methyl]-benzene-1,3-diol], the “S31N OOcyte Inhibition at 100 uM (%)” value in assay [1] (pH 5.5) is listed as “B (key: (A)=31-95%; (B)=0-30%)”. In addition, in assay [2] (pH 5.5), the “V27A OOcyte Inhibition at 100 uM (%)” value was “A (key: (A)=31-95%; (B)=0-30%)”.

Regarding `CCOc1ccc(CNC23CC4CC(CC(C4)C2)C3)cc1` [Example 20, Adamantan-1-yl-(4-ethoxy-benzyl)-amine], the “S31N OOcyte Inhibition at 100 uM (%)” value in assay [1] (pH 5.5) is “A (key: (A)=31-95%; (B)=0-30%)”. The “V27A OOcyte Inhibition at 100 uM (%)” value in assay [2] (pH 5.5) is recorded as “B (key: (A)=31-95%; (B)=0-30%)”.

As for `CS(=O)(=O)c1ccc(CNC23CC4CC(CC(C4)C2)C3)cc1` [Example 25, Adamantan-1-yl-(4-methanesulfonyl-benzyl)-amine], in assay [1] (pH 5.5), the “S31N OOcyte Inhibition at 100 uM (%)” value is reported as “B (key: (A)=31-95%; (B)=0-30%)”. Further, the “V27A OOcyte Inhibition at 100 uM (%)” value in assay [2] (pH 5.5) is recorded as “B (key: (A)=31-95%; (B)=0-30%)”.

Consider `Oc1ccc(CN2CC3CC4CC(C3)CC2C4)c(O)c1` [Example 116, 4-(4-Aza-tricyclo[4.3.1.13,8]undec-4-ylmethyl)-benzene-1,3-diol], for which the “S31N OOcyte Inhibition at 100 uM (%)” value in assay [1] (pH 5.5) is “B (key: (A)=31-95%; (B)=0-30%)”. Moreover, the “V27A OOcyte Inhibition at 100 uM (%)” value in assay [2] (pH 5.5) is recorded as “A (key: (A)=31-95%; (B)=0-30%)”.

With `c1cc(-c2nnn[nH]2)ccc1CNC12CC3CC(CC(C3)C1)C2` [Example 15, Adamantan-1-yl-[4-(1H-tetrazol-5-yl)-benzyl]amine], the “S31N OOcyte Inhibition at 100 uM (%)” value in assay [1] (pH 5.5) is “B (key: (A)=31-95%; (B)=0-30%)”. The “V27A OOcyte Inhibition at 100 uM (%)” value in assay [2] (pH 5.5) is given as “B (key: (A)=31-95%; (B)=0-30%)”.

With `COc1cc(Cl)sc1CNC12CC3CC(CC(C3)C1)C2` [Example 80a], the “S31N OOcyte Inhibition at 100 uM (%)” value in assay [1] was “B (key: (A)=31-95%; (B)=0-30%)”. Moreover, the “V27A OOcyte Inhibition at 100 uM (%)” value in assay [2] is listed as “B (key: (A)=31-95%; (B)=0-30%)”.

As for `Oc1cc(-c2cc3ccccc3o2)ccc1CNC12CC3CC(CC(C3)C1)C2` [Example 48a], the “S31N OOcyte Inhibition at 100 uM (%)” value in assay [1] is given as “B (key: (A)=31-95%; (B)=0-30%)”. Further, in assay [2], the “V27A OOcyte Inhibition at 100 uM (%)” value is “B (key: (A)=31-95%; (B)=0-30%)”.
